The text below walks through data of PubChem BioAssay (NCI).

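Each compound was tested at five concentrations against cells in 96-well plates for 48 hours. GI50 = concentration required for 50% inhibition of growth. The concentration for full growth arrest is given as TGI.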

Among the test systems are HCT-116 colon; HT29 colon; LOX IMVI melanoma; M14 melanoma; OVCAR-5 ovarian; SF-295 CNS; SNB-19 CNS; SR leukemia; TK-10 renal; OVCAR-8 ovarian.
Common to all, as to assay: DTP human tumour cell line panel, 48 h

In general, TGI refers to the concentration at which net growth stops. A lower TGI goes with greater sensitivity of the cells. For the compound `Cc1c(C(=O)CSc2nc3ccccc3c(=O)n2-c2ccccc2)c(=O)n(-c2ccccc2)n1C`, the TGI in the assay with HCT-116 colon is above 100 µM; in the assay with HT29 colon, above 100 µM; in the assay with LOX IMVI melanoma it was above 100 µM; in the assay with M14 melanoma it was above 100 µM; with OVCAR-5 ovarian it was above 100 µM; in the assay with SF-295 CNS, 66.2 µM. Further, the TGI in the assay on SNB-19 CNS, in the assay with SR leukemia and with TK-10 renal was above 100 µM throughout.
`COc1ccc(Nc2nc3ccccc3nc2-c2cccs2)cc1`: the concentration for total growth inhibition (TGI) in the assay with HCT-116 colon, with LOX IMVI melanoma, with M14 melanoma, in the assay on OVCAR-5 ovarian, in the assay with OVCAR-8 ovarian and in the assay on SF-295 CNS was above 100 µM each time. Further, the total growth inhibition concentration (TGI) with SNB-19 CNS, with SR leukemia and with TK-10 renal was above 100 µM throughout.
For `OC(c1ccc(Br)cc1)(c1cccs1)C1CC1` (stereo unspecified), the total growth inhibition concentration (TGI) worked out at 33.3 µM in the assay on HCT-116 colon; 68 µM in the assay on HT29 colon; 42.4 µM in the assay on LOX IMVI melanoma; 45.3 µM in the assay with M14 melanoma; 70.5 µM in the assay on OVCAR-5 ovarian; 54.1 µM in the assay on OVCAR-8 ovarian. Besides, the values for the TGI in the assay with SF-295 CNS, with SNB-19 CNS and in the assay on TK-10 renal were 44.6 µM, above 100 µM and 76.4 µM, respectively.
Regarding `CCN(CC)CC(=O)N1CCc2c([nH]c3ccccc23)C1c1cccnc1` (stereo unspecified), the total growth inhibition concentration (TGI) in the assay with HCT-116 colon, in the assay with HT29 colon, with LOX IMVI melanoma, in the assay with M14 melanoma, with OVCAR-5 ovarian and in the assay with OVCAR-8 ovarian was above 100 µM throughout. Also, the TGI in the assay on SF-295 CNS, in the assay with SNB-19 CNS and in the assay on TK-10 renal was above 100 µM each time.
On to `CC1(C)OC2COC3(CNO)OC(C)(C)OC3C2O1` (stereo unspecified), for which the TGI with HCT-116 colon, with HT29 colon, in the assay on LOX IMVI melanoma, in the assay with M14 melanoma, in the assay with OVCAR-5 ovarian and with OVCAR-8 ovarian was above 100 µM throughout. Besides, the total growth inhibition concentration (TGI) with SF-295 CNS, in the assay with SNB-19 CNS and with TK-10 renal was above 100 µM each time.
One may read the GI50 as the concentration at which growth is held to half of that of the control. `CC1CCCc2c1nn(C(=O)/C=C(\N)c1ccccc1)c2N` (stereo unspecified): the GI50 is 5.55 µM in the assay on HCT-116 colon; 16.8 µM in the assay with HT29 colon; 6.29 µM with LOX IMVI melanoma; 12.3 µM in the assay with M14 melanoma; 31 µM in the assay on OVCAR-5 ovarian; 8.5 µM in the assay on OVCAR-8 ovarian. Moreover, the values for the GI50 in the assay on SF-295 CNS, in the assay with SNB-19 CNS and in the assay with TK-10 renal were 30.6 µM, 25.2 µM and 28.9 µM, respectively. Further, the TGI in the assay on HCT-116 colon is 26.3 µM; in the assay on HT29 colon it was above 100 µM; in the assay on LOX IMVI melanoma it was above 100 µM; in the assay on M14 melanoma, above 100 µM; in the assay on OVCAR-5 ovarian, above 100 µM; in the assay with OVCAR-8 ovarian, above 100 µM. The total growth inhibition concentration (TGI) in the assay with SF-295 CNS, with SNB-19 CNS and in the assay with TK-10 renal was above 100 µM each time.
For the compound `COC1OC(C)C(OCc2ccccc2)C(OS(=O)(=O)c2ccc(C)cc2)C1OS(=O)(=O)c1ccc(C)cc1` (stereo unspecified), the TGI in the assay on HCT-116 colon, with HT29 colon, with M14 melanoma, in the assay on OVCAR-5 ovarian, in the assay with OVCAR-8 ovarian and in the assay with SF-295 CNS was above 100 µM throughout. Also, the TGI in the assay with SNB-19 CNS and in the assay on SR leukemia was above 100 µM in each case.
Regarding `CNC(=O)c1cc2c(Oc3ccc(NC(=O)C4(C(=O)Nc5ccc(F)cc5)CC4)cc3)ccnc2cc1OC`, the GI50 with HCT-116 colon is 3.23 µM; in the assay on HT29 colon, 2.42 µM; in the assay on LOX IMVI melanoma, 2.57 µM; with M14 melanoma, 2.45 µM; in the assay on OVCAR-5 ovarian it was 3.17 µM; with OVCAR-8 ovarian it was 3.77 µM. The concentration for 50% growth inhibition (GI50) in the assay on SF-295 CNS was 0.177 µM; in the assay on SNB-19 CNS, 8.02 µM; in the assay on SR leukemia, 2.05 µM. Besides, the total growth inhibition concentration (TGI) in the assay with HCT-116 colon was 14.2 µM; with HT29 colon, above 100 µM; with LOX IMVI melanoma, 8.93 µM; in the assay on M14 melanoma, 11.2 µM; in the assay with OVCAR-5 ovarian, above 100 µM; in the assay on OVCAR-8 ovarian, above 100 µM. In addition, the TGI is 6.26 µM in the assay on SF-295 CNS, above 100 µM in the assay on SNB-19 CNS and 5.99 µM in the assay with SR leukemia.
On to `COC(=O)/C(C#N)=C1\CCC(C(=O)OC)N1C` (stereo unspecified), for which the TGI in the assay on HCT-116 colon, in the assay on M14 melanoma, in the assay on OVCAR-8 ovarian, in the assay on SF-295 CNS, in the assay on SNB-19 CNS and with SR leukemia was above 100 µM each time. The TGI with TK-10 renal is above 100 µM.
Regarding `CCCCCCCCCCCCCC(=O)OCC1OC(=O)CC1O` (stereo unspecified), the TGI with HCT-116 colon is above 100 µM; with HT29 colon it was above 100 µM; in the assay with LOX IMVI melanoma it was above 100 µM; in the assay with M14 melanoma, 47.9 µM; in the assay with OVCAR-5 ovarian, above 100 µM; with OVCAR-8 ovarian, above 100 µM. Moreover, the TGI with SF-295 CNS, in the assay with SNB-19 CNS and in the assay with TK-10 renal was above 100 µM each time.
Consider `CC1=C(C(=O)Nc2ccccc2C)C(/C=C/c2ccccc2)C(C(=O)Nc2ccccc2C)=C(C)N1`, for which the concentration for total growth inhibition (TGI) in the assay on HCT-116 colon, in the assay with HT29 colon, in the assay on LOX IMVI melanoma, in the assay with M14 melanoma, with OVCAR-5 ovarian and in the assay on OVCAR-8 ovarian was above 100 µM each time. Also, the concentration for total growth inhibition (TGI) in the assay on SF-295 CNS, in the assay with SNB-19 CNS and in the assay on TK-10 renal was above 100 µM in each case.
On to `CCOC(=O)c1ccc(N[C@@H]2c3cc4c(cc3C(C3=CC(=O)C(=O)C(OC)=C3)[C@H]3C(=O)OCC32)OCO4)cc1` (stereo partly specified), for which the TGI with HCT-116 colon worked out at 18.7 µM; in the assay on HT29 colon, 18.2 µM; with LOX IMVI melanoma it was 11.4 µM; with M14 melanoma, 9.96 µM; with OVCAR-5 ovarian, 36.1 µM; in the assay with OVCAR-8 ovarian, 15.9 µM. Further, the total growth inhibition concentration (TGI) with SF-295 CNS worked out at 6.87 µM; with SNB-19 CNS it was 42 µM; with TK-10 renal it was 38.9 µM.
As to `O=C(NC12CC3CC(CC(C3)C1)C2)C(=O)c1c[nH]c2ccc(Cl)cc12`, the total growth inhibition concentration (TGI) with HCT-116 colon was above 100 µM; with HT29 colon, above 100 µM; in the assay with LOX IMVI melanoma, 84.8 µM; with M14 melanoma, above 100 µM; with OVCAR-5 ovarian, above 100 µM; with SF-295 CNS, 65.2 µM. The TGI in the assay on SNB-19 CNS and in the assay on SR leukemia was above 100 µM each time.
